Source: ChEMBL document CHEMBL1201862, “PubChem BioAssay data set” (2004)
The source made the active and inactive calls.

How the values were obtained:
HEK293 [1] = test: NOD1 signaling inhibitors, primary screen, cell-based, luminescence, uHTS (AID 1578); type: functional; details: Homo sapiens
HEK293 [2] = test: cells; type: functional, cell-based; details: Homo sapiens
HEK293 [3] = test: cells; type: functional, cell-based; details: Homo sapiens; remark: listed apart in the source
HEK293 [4] = test: NOD2 signaling inhibitors in MDP-stimulated cells, cell-based, uHTS, luminescence (AID 2001); type: functional; details: Homo sapiens
[5] = molecular target: T1, Short transient receptor potential channel 4 (Mus musculus, UniProt Q9QUQ5); test: mouse TRPC4 channel inhibitors, dose response, cell-based, HEK293 TRPC4/mu-opioid, Fluo-4 calcium (AID 434942); type: functional;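 also: potency of inhibitors blocking the TRPC4 calcium response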
T1 sequence (Q9QUQ5 whole entry): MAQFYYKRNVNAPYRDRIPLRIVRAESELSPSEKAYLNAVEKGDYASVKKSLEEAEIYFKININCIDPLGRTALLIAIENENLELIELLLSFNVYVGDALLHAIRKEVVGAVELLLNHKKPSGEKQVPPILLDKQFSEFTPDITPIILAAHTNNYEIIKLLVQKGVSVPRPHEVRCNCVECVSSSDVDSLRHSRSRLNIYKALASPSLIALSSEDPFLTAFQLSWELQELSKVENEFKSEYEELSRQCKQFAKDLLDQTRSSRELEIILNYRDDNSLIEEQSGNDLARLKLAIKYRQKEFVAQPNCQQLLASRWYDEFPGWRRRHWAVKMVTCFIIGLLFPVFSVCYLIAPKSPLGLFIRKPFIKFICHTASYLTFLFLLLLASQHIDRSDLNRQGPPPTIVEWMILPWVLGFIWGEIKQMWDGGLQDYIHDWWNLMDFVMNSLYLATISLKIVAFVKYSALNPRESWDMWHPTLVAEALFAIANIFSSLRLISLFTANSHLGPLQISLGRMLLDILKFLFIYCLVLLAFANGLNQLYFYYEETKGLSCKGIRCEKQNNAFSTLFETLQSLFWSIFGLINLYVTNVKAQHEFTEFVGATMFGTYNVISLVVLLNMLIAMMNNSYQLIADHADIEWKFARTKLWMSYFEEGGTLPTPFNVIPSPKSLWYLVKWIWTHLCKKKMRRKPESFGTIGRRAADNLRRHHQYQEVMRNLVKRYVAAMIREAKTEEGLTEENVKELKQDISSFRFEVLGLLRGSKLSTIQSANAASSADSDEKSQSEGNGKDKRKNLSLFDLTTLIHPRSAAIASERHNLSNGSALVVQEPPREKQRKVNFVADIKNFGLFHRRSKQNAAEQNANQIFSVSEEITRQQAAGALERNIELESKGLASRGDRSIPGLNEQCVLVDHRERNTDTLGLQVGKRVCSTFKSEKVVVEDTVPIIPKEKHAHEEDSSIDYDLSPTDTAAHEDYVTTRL

[6] = molecular target: Peroxisome proliferator-activated receptor gamma/Nuclear receptor coactivator 2 (Homo sapiens, UniProt P37231); type: functional;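 also: agonist potency for raising coactivator recruitment to the receptor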
[7] = molecular target: Peroxisome proliferator-activated receptor gamma/Nuclear receptor coactivator 1 (Homo sapiens, UniProt P37231); type: functional;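 also: agonist potency as compounds enhance coactivator SRC-1 recruitment to PPARgamma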
[8] = molecular target: Peroxisome proliferator-activated receptor gamma/Nuclear receptor coactivator 3 (Homo sapiens, UniProt P37231); type: functional;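 also: agonist potency for raising coactivator recruitment to the receptor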
Trypsin = Trypsin (Sus scrofa, UniProt P00761); test: porcine trypsin inhibitors, dose response, selectivity assay for Rce1 protease inhibitor project, biochemical, quenched peptide fluorescence, cherry-pick (AID 488789)
CAAX prenyl protease 2 = molecular target: T2, CAAX prenyl protease 2 (Saccharomyces cerevisiae S288c, UniProt Q03530); type: biochemical
T2 sequence (Q03530 whole entry): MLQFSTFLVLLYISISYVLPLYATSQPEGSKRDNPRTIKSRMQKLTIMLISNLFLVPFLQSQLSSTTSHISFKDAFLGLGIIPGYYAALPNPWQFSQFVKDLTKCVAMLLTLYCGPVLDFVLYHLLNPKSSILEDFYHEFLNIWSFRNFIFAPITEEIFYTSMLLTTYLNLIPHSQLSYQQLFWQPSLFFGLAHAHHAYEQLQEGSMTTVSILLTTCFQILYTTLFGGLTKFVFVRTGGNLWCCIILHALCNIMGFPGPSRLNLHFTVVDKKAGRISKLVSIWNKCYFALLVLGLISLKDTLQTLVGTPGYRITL

[9] = off-target signal loss in HeLa-CEM21 co-culture – HeLa F-luc CTL cells, cherry-picked, counter-screen for HIV-1 Env fusion inhibitor project, dose response (AID 652040); type: functional, cell-based;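 also: potency for signal decrease marking cytotoxic or nonspecific inhibition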
[10] = inhibitors of intracellular T. cruzi replication, confirmation, NIH3T3 host cells, beta-gal luminescence (AID 2044); type: functional, cell-based;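 also: intracellular parasites grown in NIH/3T3 mouse fibroblasts as host cells; luminescent beta-galactosidase reporter signal from transgenic T. cruzi replicating inside host cells; inhibitors lower the luminescence signal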
[11] = cytotoxicity toward NIH3T3 fibroblasts, dose response, counter-screen, cell-based, ATP luminescence, mouse fibroblasts (AID 2010); type: functional;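 also: cells exposed to compound for about 90 hours before reading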
[12] = molecular target: DNA dC->dU-editing enzyme APOBEC-3A (Homo sapiens, UniProt P31941); test: Dose Response confirmation of small molecule APOBEC3A DNA Deaminase Inhibitors via a fluorescence-based single-stranded DNA deaminase assay. [Related pubchem assays (depositor defined):AID493011, AID493024]; type: functional
[13] = molecular target: DNA dC->dU-editing enzyme APOBEC-3G (Homo sapiens, UniProt Q9HC16); type: functional;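 also: Dose-response counterscreen measuring inhibition of APOBEC3G DNA deaminase activity, run while confirming APOBEC3A inhibitors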
[14] = molecular target: T3, Carboxy-terminal domain RNA polymerase II polypeptide A small phosphatase 1 (Homo sapiens, UniProt Q9GZU7); test: inhibitors of CTDSP1, concentration-response testing, biochemical assay, absorbance-based, actives from ultra-high-throughput screening (AID 540297); type: functional
T3 sequence (Q9GZU7 whole entry): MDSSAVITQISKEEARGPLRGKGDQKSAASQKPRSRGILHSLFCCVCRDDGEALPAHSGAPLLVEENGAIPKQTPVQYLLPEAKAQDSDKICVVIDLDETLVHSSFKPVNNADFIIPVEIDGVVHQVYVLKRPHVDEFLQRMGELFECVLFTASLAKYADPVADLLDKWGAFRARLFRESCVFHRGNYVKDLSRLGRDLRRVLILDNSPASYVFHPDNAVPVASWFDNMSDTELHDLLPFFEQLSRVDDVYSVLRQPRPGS

[15] = HEp-2 cell cytotoxicity, dose response, cytotoxicity control for RSV inhibitor project, HTS (AID 2410); type: functional; details: human respiratory syncytial virus
[16] = cytotoxicity in HPDE-C7 cells, cell-based, fluorescence, HTS (AID 430); type: functional; details: Homo sapiens
[17] = cytotoxicity in KRAS-transformed pancreatic duct cells, primary screen, cell-based, fluorescence, HTS (AID 431); type: functional; details: Homo sapiens;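 also: cell line used: HPDE-C7K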
[18] = molecular target: T4, Calpain-2 catalytic subunit (Sus scrofa, UniProt P43367); test: pig calpain II inhibitor potency, dose response, biochemical, fluorogenic peptide substrate (AID 1420); type: functional
T4 sequence (P43367 whole entry): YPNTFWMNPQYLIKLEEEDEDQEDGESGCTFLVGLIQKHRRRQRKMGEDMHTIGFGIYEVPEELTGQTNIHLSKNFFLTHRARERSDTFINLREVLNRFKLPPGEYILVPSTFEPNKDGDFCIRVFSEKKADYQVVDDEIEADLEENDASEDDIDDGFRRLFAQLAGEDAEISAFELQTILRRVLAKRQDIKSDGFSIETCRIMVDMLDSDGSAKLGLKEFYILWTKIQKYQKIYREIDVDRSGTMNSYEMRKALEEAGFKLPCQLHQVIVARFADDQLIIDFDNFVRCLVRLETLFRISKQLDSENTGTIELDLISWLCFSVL

Sequence of Peroxisome proliferator-activated receptor gamma/Nuclear receptor coactivator 1 (P37231 whole entry): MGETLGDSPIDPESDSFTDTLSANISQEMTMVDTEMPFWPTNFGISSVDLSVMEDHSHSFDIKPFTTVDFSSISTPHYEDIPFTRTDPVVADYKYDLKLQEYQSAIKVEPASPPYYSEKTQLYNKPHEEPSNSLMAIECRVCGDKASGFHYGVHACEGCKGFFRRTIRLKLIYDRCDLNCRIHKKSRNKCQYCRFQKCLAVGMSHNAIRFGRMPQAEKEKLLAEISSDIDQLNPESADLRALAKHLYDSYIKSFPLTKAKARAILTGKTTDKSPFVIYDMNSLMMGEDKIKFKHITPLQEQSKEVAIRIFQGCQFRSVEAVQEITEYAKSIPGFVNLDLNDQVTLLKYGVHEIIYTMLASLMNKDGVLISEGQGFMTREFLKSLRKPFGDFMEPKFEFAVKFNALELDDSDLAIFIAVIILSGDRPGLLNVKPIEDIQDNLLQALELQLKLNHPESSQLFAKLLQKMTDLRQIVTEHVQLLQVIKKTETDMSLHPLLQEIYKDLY
Sequence of Peroxisome proliferator-activated receptor gamma/Nuclear receptor coactivator 1 (Q15788 whole entry, further chain): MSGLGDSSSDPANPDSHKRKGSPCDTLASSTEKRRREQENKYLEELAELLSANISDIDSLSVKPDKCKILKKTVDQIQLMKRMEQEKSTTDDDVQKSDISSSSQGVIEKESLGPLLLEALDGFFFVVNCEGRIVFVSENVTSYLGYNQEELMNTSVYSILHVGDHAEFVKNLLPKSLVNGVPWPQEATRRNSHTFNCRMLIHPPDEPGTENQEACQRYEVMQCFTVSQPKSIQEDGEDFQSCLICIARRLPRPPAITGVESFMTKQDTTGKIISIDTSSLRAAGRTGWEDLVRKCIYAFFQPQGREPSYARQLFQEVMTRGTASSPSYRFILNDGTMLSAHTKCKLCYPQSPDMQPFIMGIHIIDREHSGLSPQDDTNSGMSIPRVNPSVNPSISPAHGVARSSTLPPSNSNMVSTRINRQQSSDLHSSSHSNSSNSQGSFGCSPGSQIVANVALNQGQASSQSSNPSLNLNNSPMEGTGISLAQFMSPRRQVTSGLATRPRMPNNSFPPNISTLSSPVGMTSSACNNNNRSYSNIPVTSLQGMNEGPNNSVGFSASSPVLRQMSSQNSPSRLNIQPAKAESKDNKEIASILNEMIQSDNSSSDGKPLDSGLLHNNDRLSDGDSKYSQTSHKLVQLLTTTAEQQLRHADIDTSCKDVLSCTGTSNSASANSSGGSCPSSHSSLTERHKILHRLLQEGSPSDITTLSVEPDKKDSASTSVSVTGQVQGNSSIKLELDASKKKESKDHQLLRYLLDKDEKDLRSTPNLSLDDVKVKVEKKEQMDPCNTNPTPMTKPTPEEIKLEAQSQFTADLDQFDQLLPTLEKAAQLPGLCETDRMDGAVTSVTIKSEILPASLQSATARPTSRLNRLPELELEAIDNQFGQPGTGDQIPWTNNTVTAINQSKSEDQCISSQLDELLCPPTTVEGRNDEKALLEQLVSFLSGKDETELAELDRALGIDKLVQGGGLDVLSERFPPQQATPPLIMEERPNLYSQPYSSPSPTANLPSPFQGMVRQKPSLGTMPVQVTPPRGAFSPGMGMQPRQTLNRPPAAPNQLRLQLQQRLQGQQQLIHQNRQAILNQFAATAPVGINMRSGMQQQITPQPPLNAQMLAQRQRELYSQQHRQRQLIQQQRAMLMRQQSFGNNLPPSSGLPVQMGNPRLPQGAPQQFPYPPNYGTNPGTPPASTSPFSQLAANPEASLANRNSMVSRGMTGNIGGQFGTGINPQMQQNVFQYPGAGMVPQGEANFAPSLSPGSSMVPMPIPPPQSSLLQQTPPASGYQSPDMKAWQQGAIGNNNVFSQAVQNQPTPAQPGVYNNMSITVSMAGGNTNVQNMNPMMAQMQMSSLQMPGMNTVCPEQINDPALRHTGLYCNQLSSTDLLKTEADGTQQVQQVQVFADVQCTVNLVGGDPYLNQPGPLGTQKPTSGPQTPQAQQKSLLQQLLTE
Sequence of Peroxisome proliferator-activated receptor gamma/Nuclear receptor coactivator 3 (P37231 whole entry): as the sequence (P37231 whole entry) above
Sequence of Peroxisome proliferator-activated receptor gamma/Nuclear receptor coactivator 3 (Q9Y6Q9 whole entry, further chain): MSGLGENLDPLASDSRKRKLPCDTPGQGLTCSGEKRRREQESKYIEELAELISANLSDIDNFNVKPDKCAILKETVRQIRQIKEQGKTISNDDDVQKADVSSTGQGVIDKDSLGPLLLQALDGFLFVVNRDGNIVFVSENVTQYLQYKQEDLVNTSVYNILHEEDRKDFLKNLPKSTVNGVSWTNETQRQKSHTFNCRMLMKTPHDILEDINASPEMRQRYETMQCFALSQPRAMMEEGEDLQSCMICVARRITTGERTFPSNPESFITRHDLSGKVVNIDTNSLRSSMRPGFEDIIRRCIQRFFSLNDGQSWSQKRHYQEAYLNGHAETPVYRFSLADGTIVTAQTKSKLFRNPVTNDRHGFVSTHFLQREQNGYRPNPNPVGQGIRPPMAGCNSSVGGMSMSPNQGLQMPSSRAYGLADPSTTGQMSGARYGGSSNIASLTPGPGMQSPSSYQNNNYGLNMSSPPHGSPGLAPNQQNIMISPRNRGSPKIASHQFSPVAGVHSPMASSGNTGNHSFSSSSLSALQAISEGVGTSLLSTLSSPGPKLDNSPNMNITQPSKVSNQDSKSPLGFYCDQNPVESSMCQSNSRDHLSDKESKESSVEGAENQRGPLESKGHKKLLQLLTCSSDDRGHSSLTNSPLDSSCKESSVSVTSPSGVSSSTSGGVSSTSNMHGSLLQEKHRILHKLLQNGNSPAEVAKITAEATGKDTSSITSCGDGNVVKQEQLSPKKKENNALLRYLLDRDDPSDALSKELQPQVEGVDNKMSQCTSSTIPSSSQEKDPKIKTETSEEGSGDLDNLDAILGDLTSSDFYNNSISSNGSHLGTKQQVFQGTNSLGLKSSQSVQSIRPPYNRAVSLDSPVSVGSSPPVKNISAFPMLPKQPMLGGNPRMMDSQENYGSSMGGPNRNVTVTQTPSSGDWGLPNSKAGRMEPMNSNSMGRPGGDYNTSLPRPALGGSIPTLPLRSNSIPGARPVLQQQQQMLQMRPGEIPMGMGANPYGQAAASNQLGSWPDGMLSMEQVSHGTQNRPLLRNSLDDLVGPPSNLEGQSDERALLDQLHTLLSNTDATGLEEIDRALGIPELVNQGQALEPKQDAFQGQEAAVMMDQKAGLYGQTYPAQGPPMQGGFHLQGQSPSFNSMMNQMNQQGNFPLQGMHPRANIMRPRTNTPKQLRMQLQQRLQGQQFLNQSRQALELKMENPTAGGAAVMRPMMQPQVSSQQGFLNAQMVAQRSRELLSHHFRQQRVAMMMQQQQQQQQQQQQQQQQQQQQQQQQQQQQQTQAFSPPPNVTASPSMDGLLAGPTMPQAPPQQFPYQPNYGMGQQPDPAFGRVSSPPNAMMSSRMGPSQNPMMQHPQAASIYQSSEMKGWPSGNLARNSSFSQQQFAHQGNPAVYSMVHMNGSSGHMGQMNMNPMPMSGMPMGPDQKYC
Sequence of DNA dC->dU-editing enzyme APOBEC-3G (Q9HC16 whole entry, the tested form may be a part): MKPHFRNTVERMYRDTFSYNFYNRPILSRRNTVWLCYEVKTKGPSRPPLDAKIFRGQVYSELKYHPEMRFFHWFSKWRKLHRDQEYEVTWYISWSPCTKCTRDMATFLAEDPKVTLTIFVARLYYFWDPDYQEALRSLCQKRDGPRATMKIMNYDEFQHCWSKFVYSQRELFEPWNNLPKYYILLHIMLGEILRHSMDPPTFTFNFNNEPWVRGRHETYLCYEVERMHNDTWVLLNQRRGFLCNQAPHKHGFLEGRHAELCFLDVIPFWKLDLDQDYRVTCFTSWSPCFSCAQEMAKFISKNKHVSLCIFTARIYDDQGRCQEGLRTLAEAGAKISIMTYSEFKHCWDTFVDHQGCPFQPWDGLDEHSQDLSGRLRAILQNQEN
Sequence of DNA dC->dU-editing enzyme APOBEC-3A (P31941 whole entry): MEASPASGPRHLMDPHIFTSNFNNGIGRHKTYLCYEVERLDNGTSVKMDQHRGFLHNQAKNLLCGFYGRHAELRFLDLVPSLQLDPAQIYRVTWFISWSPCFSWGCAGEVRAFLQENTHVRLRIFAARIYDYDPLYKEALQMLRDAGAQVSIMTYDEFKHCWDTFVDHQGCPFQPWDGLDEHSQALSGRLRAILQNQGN
Sequence of Trypsin (P00761 whole entry): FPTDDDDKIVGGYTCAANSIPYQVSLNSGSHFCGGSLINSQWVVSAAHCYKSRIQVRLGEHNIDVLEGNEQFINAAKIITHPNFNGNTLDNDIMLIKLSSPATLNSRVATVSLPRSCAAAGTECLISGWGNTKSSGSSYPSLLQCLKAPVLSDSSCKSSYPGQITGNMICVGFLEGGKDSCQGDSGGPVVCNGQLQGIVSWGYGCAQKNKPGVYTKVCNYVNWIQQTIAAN

O=C(c1ccc(Cl)cc1)C1CCCN(Cc2ccc3ncccc3c2)C1 (stereo not given)
EC50 (HEK293 [1]): 4.42 µM (active)
IC50 (HEK293 [2]): 3.92 µM (active)
IC50 (HEK293 [3]): 15.5 µM (active)
IC50 (HEK293 [4]): 5.78 µM (active)

CCn1c(=N)n(CC(=O)c2ccc(Br)s2)c2ccccc21
EC50 [5]: 13.3 µM (active)

COC(=O)c1ccccc1NC(=O)c1cc(-c2ccc(O)cc2)on1
EC50 [6]: 31.5 µM (not active)
EC50 [7]: 24.9 µM (not active)
EC50 [8]: 33.6 µM (not active)

Cc1oc(-c2ccoc2)nc1CN(Cc1ccccc1)CC1CC1
EC50 [5]: 4.22 µM (active)

Cc1cccc2[nH]c3c(N4CCC5(CC4)OCCO5)ncnc3c12
AC50 (Trypsin): 36.5 µM (active)
AC50 (CAAX prenyl protease 2): 13.7 µM (active)

COc1ccc(OCC(=O)Nc2cc(-c3nn(C)c(=O)c4ccccc34)ccc2OC)cc1
EC50 [6]: 31.2 µM (not active)
EC50 [7]: 62.6 µM (not active)
EC50 [8]: 76.6 µM (not active)
AC50 [9]: 30.3 µM (active)

Cc1nc(N2CCOCC2)c2c(C)c(C(=O)Nc3ccc(C(F)(F)F)cc3)sc2n1
EC50 [10]: 0.522 µM (active)
EC50 [11]: > 60 µM (not active)
AC50 (CAAX prenyl protease 2): 5.99 µM (active)

C[N+](C)(C)CCCN(Cc1ccc2c(c1)OCO2)C(=O)NC1CCCCC1
IC50 [12]: 2.43 µM (active)
IC50 [13]: 4.17 µM (active)
IC50 [14]: 3.12 µM (active)

CCOC(=O)c1c2c(c(=S)n(-c3ccccc3)c1N)CCC2
CC50 [15]: 26.4 µM (active)
EC50 [16]: 10.4 µM (active)
EC50 [17]: 9.88 µM (active)
IC50 [18]: 7.26 µM (not active)
